In brackets after ≈: the same amount, converted by molar mass.
Experiments:
[1] = target: Glycogen synthase kinase-3 beta (Mus musculus, UniProt Q9WV60); experiment: Inhibition of recombinant mouse GSK3beta expressed in COS-1 cells by luciferase reporter gene assay; format: cell-based
Plasmodium falciparum [2] = experiment: Antiparasitic activity against chloroquine-resistant Plasmodium falciparum assessed as inhibition of parasite survival; format: functional, organism-based
HeLa = experiment: Antiproliferative activity against human HeLa cells; format: functional
Plasmodium falciparum [3] = experiment: Ratio of chloroquine IC50 to compound IC50 for chloroquine-resistant Plasmodium falciparum; format: functional
Plasmodium falciparum [4] = experiment: Antiparasitic activity against chloroquine-resistant Plasmodium falciparum; format: functional, organism-based
[5] = target: Mitogen-activated protein kinase 14 (Homo sapiens, UniProt Q16539); experiment: Inhibition of p38 alpha MAP kinase (unknown origin)
Mitogen-activated protein kinase 14, sequence (Q16539 whole entry): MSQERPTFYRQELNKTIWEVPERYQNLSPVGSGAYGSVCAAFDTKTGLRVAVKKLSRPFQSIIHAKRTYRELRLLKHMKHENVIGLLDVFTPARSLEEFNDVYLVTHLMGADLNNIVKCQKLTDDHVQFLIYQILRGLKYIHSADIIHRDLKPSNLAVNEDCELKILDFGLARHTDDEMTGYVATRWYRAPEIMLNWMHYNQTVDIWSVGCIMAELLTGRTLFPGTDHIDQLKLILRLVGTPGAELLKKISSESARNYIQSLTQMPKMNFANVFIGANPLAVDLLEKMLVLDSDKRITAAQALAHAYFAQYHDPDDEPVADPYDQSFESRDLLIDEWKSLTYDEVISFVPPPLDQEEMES

Aurora kinase A = target: T1, Aurora kinase A (Homo sapiens, UniProt O14965); experiment: Inhibition of Aurora A kinase (unknown origin)
T1 sequence (O14965 whole entry): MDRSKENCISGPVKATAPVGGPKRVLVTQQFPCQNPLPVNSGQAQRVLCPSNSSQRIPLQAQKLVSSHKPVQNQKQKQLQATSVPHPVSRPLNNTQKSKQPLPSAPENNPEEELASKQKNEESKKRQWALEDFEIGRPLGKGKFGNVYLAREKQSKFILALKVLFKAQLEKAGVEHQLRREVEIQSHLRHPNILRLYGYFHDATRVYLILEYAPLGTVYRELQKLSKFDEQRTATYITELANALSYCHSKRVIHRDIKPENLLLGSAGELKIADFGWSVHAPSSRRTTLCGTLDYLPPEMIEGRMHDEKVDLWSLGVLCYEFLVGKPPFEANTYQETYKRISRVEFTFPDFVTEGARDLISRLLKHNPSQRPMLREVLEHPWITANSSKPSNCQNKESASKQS

[6] = target: T2, M-phase inducer phosphatase 2 (Homo sapiens, UniProt P30305); experiment: Inhibition of CDC25B (unknown origin)
T2 sequence (P30305 whole entry): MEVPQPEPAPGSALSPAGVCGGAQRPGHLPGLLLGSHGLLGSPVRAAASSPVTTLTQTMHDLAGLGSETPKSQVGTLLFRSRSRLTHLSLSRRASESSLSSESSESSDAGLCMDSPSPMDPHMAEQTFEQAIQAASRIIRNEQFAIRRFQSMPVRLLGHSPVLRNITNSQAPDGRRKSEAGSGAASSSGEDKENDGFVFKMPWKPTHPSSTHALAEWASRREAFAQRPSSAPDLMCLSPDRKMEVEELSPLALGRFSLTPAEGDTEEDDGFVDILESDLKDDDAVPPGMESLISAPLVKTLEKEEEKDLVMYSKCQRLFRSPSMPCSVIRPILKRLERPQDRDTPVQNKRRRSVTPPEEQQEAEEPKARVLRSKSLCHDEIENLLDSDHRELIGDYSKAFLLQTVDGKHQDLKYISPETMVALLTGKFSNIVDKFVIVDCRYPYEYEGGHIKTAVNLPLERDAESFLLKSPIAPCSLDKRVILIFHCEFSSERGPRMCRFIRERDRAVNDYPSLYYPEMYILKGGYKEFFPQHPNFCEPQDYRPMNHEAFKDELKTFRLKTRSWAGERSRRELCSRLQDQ

[7] = target: T3, Tyrosine-protein phosphatase non-receptor type 2 (Homo sapiens, UniProt P17706); experiment: Inhibition of TC-PTP (unknown origin)
T3 sequence (P17706 whole entry): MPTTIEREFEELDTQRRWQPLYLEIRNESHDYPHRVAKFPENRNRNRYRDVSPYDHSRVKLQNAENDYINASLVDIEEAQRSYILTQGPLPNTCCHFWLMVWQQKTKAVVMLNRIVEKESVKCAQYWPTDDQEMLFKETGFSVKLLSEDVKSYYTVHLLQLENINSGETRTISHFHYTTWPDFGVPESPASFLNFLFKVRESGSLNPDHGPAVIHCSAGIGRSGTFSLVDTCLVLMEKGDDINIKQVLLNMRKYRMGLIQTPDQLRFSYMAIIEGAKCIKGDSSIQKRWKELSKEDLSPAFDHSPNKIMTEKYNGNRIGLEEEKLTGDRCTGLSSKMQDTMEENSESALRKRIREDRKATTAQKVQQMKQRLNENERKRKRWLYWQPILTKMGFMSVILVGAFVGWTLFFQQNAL

[8] = target: T4, Tyrosine-protein phosphatase non-receptor type 1 (Homo sapiens, UniProt P18031); experiment: Inhibition of PTP1B (unknown origin)
T4 sequence (P18031 whole entry): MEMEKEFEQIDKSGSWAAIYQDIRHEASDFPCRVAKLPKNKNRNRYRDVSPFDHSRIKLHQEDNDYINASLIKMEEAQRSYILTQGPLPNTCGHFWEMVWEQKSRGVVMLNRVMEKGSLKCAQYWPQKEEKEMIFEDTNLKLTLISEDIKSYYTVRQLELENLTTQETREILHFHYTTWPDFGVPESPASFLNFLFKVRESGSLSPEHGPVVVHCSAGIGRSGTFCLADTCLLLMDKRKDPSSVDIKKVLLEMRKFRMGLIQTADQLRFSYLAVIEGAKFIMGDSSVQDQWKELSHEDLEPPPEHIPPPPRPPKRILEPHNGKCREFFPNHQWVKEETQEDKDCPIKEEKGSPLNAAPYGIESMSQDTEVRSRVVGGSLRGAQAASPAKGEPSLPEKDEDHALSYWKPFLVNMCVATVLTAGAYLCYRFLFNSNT

[9] = Inhibition of Mycobacterium tuberculosis protein tyrosine phosphatase B
[10] = target: T5, Tumour suppressor p53/oncoprotein Mdm2 (Homo sapiens, UniProt Q00987); experiment: Competitive inhibition of recombinant human Mdm2 (aa 1 to 118)-p53 ( 1 to 321) interaction; format: protein assay
T5 sequence (P04637 whole entry, the tested form may be a part): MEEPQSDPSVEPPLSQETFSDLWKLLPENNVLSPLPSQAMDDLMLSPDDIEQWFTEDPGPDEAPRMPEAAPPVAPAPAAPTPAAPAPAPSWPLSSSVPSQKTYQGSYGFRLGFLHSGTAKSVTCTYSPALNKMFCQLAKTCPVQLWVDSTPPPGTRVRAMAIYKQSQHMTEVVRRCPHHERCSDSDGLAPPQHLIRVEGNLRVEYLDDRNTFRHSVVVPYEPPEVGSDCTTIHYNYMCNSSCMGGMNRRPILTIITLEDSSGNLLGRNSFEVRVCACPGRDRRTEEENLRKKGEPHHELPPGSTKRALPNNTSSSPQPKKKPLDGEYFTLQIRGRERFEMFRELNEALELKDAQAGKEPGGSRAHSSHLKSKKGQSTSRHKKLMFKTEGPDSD
T5 sequence (Q00987 whole entry, the tested form may be a part): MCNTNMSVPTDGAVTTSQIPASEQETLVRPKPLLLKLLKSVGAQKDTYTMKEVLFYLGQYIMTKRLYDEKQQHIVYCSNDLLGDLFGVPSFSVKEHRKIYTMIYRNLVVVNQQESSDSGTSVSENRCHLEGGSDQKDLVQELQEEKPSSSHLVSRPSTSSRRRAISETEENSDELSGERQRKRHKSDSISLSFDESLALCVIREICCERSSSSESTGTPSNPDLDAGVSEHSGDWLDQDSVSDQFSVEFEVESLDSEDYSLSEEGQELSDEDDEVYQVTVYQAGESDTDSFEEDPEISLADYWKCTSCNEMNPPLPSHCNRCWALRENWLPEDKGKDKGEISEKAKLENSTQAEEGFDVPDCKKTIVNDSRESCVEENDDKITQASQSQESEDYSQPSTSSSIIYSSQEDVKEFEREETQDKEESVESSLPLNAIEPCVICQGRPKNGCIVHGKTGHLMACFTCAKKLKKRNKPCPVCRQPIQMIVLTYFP

[11] = target: T6, E3 ubiquitin-protein ligase Mdm2 (Homo sapiens, UniProt Q00987); experiment: Binding affinity to HDM2 ( unknown origin) by NMR analysis
T6 sequence (Q00987 whole entry): as the sequence (Q00987 whole entry, the tested form may be a part) above

[12] = target: T5, Tumour suppressor p53/oncoprotein Mdm2; experiment: Inhibition of Mdm2-p53 interaction in human PA-1 cells; format: cell-based
[13] = target: T6, E3 ubiquitin-protein ligase Mdm2; experiment: Inhibition of Mdm2 in p53-deficient human PA-1 cells; format: cell-based
MCF7 = experiment: Antiproliferative activity against human MCF7 cells; format: functional, cell-based
Trypanosoma cruzi = experiment: Antiparasitic activity against epimastigote stage of Trypanosoma cruzi assessed as growth inhibition at 50 uM; format: functional
Prolyl endopeptidase = target: T7, Prolyl endopeptidase (Homo sapiens, UniProt P48147); experiment: Inhibition of purified prolyl oligopeptidase (unknown origin) after 1 hr by spectrophotometry
T7 sequence (P48147 whole entry): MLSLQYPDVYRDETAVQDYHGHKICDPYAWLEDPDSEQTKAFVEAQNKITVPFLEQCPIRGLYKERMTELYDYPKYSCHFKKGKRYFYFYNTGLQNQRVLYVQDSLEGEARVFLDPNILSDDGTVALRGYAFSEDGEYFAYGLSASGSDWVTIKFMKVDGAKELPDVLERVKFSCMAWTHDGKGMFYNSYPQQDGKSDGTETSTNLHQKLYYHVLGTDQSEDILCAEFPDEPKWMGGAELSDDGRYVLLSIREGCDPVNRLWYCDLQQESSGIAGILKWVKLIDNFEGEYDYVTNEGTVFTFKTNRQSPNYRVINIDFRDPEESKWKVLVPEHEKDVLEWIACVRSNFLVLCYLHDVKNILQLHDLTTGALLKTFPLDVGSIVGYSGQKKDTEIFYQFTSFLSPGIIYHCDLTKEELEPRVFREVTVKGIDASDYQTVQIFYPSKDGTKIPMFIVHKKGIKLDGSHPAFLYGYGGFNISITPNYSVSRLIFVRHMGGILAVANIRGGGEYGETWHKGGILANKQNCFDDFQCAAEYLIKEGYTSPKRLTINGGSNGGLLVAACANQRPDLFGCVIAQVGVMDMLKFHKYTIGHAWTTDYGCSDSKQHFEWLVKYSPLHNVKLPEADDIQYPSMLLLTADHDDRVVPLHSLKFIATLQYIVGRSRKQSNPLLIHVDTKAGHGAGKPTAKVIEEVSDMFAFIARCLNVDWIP

[14] = system: Mycobacterium tuberculosis; experiment: Antibacterial activity against Mycobacterium tuberculosis H37Ra; format: functional
PC-3 = experiment: Cytotoxicity against human PC3 cells; format: functional
HT-29 = experiment: Cytotoxicity against human HT-29 cells; format: functional

Glycogen synthase kinase-3 beta, sequence (Q9WV60 whole entry): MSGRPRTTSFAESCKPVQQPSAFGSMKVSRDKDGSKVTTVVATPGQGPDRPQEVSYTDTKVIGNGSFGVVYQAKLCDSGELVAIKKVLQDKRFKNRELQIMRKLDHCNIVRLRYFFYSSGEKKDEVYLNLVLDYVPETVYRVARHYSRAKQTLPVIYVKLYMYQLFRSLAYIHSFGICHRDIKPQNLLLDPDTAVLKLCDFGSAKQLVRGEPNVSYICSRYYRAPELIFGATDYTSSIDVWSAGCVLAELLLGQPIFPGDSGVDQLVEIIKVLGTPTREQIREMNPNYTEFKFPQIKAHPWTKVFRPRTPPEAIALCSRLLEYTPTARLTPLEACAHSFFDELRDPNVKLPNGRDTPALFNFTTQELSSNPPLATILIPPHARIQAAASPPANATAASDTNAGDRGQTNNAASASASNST

Structure (SMILES): c1cnc2nc(-c3ccc4[nH]ncc4c3)c(NC3CCCCC3)n2c1
- Ki [1]: 10 nM

Structure (SMILES): O=C(CN(CCCNc1ccnc2cc(Cl)ccc12)C(=O)c1ccncc1)NC1CCCCC1
- IC50 (Plasmodium falciparum [2]): 610 nM

Structure (SMILES): O=C(CN(CCCNc1ccnc2cc(Cl)ccc12)C(=O)c1cnccn1)NC1CCCCC1
- IC50 (Plasmodium falciparum [2]): 540 nM

Structure (SMILES): Cc1cc2c(c(=O)n1C)C(c1ccc(N(C)C)c(Br)c1)C(C#N)=C(N)O2 (stereo not given)
- GI50 (HeLa): 330 nM

Structure (SMILES): CC(NCCCNc1ccnc2cc(Cl)ccc12)c1nc(Cc2ccccc2)c(N2CCOCC2)o1 (stereo not given)
- Ratio IC50 (Plasmodium falciparum [3]): 21
- IC50 (Plasmodium falciparum [4]): 3.8 nM

Structure (SMILES): Cc1ccoc1-c1cc(-c2ccc(Br)cc2)[nH]c(=N)c1C#N
- IC50 [5]: 70 nM

Structure (SMILES): N#Cc1c(-c2ccc(Cl)c(Cl)c2)cc(-c2ccc(Br)cc2)nc1N
- IC50 [5]: 120 nM

Structure (SMILES): COC(c1ccc(C)cc1)c1cnn2c(-c3ccccc3)cc3c(Cl)cccc3c12 (stereo not given)
- IC50 (Aurora kinase A): 13400 nM
- IC50 [6]: 2190 nM
- IC50 [7]: 4500 nM
- IC50 [8]: 1000 nM

Structure (SMILES): COc1ccc(NN2[C@@H]([C@H](O)c3cc(Br)c(OC)c(OC)c3)C=C[C@H]3C(=O)N(C4CCCCC4)C(=O)[C@H]32)cc1
- IC50 [9]: 66000 nM

Structure (SMILES): O=C1NC(=O)[C@@H]2C=C[C@H]([C@H](O)C3CC=CCC3)N(Nc3ccc(Cl)cc3Cl)[C@H]12 (stereo not given in full)
- IC50 [9]: 68000 nM

Structure (SMILES): O=C(NCc1ccccc1)C1C(=O)Nc2sc3c(c2C(=O)N1Cc1ccc(Cl)cc1)CCCC3 (stereo not given)
- Ki [10]: 40000 nM

Structure (SMILES): O=C(NCc1ccc(Cl)c(Cl)c1)C1C(=O)Nc2sc3c(c2C(=O)N1Cc1ccc(Cl)cc1)CCCC3 (stereo not given)
- Ki [10]: 45000 nM

Structure (SMILES): Cc1ccc(S(=O)(=O)/N=C(\Nc2ccc(Cl)cc2)NC(C)(C)C)cc1
- Kd [11]: > 100000 nM

Structure (SMILES): O=C1C(O)=C(c2ccccc2)C(c2ccc(Cl)cc2)N1Cc1ccc(Cl)cc1 (stereo not given)
- Kd [11]: > 200000 nM
- IC50 [12]: 12200 nM
- IC50 [13]: 26200 nM

Structure (SMILES): CC1(C)CC(=O)C2=C(C1)Oc1ccc3ccccc3c1C2c1ccc(O)cc1 (stereo not given)
- IC50 (MCF7): 6.7 µg/mL (≈ 18.1 µM)

Structure (SMILES): N#CC1=C(N)Oc2ccc3ccccc3c2C1c1ccc([N+](=O)[O-])cc1 (stereo not given)
- IC50 (MCF7): 8.9 µg/mL (≈ 25.9 µM)

Structure (SMILES): CC1(C(=O)NC2CCCCC2)CCCC(=O)N1CCCCCNc1ccnc2cc(Cl)ccc12 (stereo not given)
- IC50 (Plasmodium falciparum [4]): 96 nM

Structure (SMILES): COC(=O)C1=C(C)N(C)C(=O)N(C(=O)NCCCCNc2ccnc3cc(Cl)ccc23)C1c1ccc(OC)cc1 (stereo not given)
- Ratio IC50 (Plasmodium falciparum [3]): 200
- IC50 (Plasmodium falciparum [4]): 4 nM

Structure (SMILES): CNC(=O)CC1S/C(=N\N=C(/C)c2ccc(Br)cc2)N(C)C1=O (stereo not given)
- inhibition at 50 µM (Trypanosoma cruzi): 60%

Structure (SMILES): CCOC(=O)c1ccc2c(c1)c1c(c(-c3cccc4ccccc34)[n+]2C)CCO1
- IC50 (Prolyl endopeptidase): 75000 nM

Structure (SMILES): COc1ccc(C2Nc3ccccc3C3CCCOC32)cc1 (stereo not given)
- MIC [14]: 6.25 µM (≈ 1.85 µg/mL)

Structure (SMILES): Cn1c(=O)c2c(c3ccccc31)OC(N)=C(C#N)C2c1cncc(Br)c1 (stereo not given)
- GI50 (HeLa): 13 nM

Structure (SMILES): CC1CS(=O)(=O)CCN1/N=C/c1ccc([N+](=O)[O-])o1 (stereo not given) [NIFURTIMOX]
- inhibition at 50 µM (Trypanosoma cruzi): 100%

Structure (SMILES): CC(=O)O[C@H]1C(=O)[C@@]2(C)[C@H]([C@H](OC(=O)c3ccccc3)[C@]3(O)C[C@H](OC(=O)[C@H](O)[C@@H](NC(=O)c4ccccc4)c4ccccc4)C(C)=C1C3(C)C)[C@]1(OC(C)=O)CO[C@@H]1C[C@@H]2O [PACLITAXEL]
- GI50 (PC-3; Homo sapiens, PC-3): 7.2 nM
- GI50 (HT-29; Homo sapiens, HT-29): 5.3 nM

Structure (SMILES): CC/C(=C(\c1ccccc1)c1ccc(OCCN(C)C)cc1)c1ccccc1 [TAMOXIFEN]
- IC50 (MCF7): 10 µg/mL (≈ 26.9 µM)

Structure (SMILES): CC[C@@H](C)[C@H](NC(=O)[C@H]1CCCCN1C)C(=O)N(COC(=O)CC(C)C)[C@H](C[C@@H](OC(C)=O)c1nc(C(=O)N[C@@H](Cc2ccc(O)cc2)C[C@H](C)C(=O)O)cs1)C(C)C [TUBULYSIN A]
- GI50 (PC-3): 0.21 nM
- GI50 (HT-29): 0.32 nM
